According to patent US6492328B2, “Novispirins: antimicrobial peptides” (priority 2000, dated 2002):
Converted amounts (≈) assume the structure as drawn. Read-outs that look alike come from different tables or passages of the source. Where no end group is shown, it is not given here.

Experiments:
E. coli ML 35P [1] = details: underlay gel 60% RPMI-1640
Text: (§1) Effect of serum. […] Because serum can be present in an inflammatory focus or exudate, the ability to function in the presence of serum would be a desirable property.
(§2) In these experiments, the underlay gel contained 60% RPMI-1640, ±2.5 or 20% normal human serum (NHS). The remainder of the solution was phosphate-buffered saline

P. aeruginosa MR 3007 = details: underlay gel 60% RPMI-1640
Text: as §1, §2

S. maltophilia 47CG = test: Novispirins vs S. maltophilia (Table 5); type: cell-based, Stenotrophomonas maltophilia; parameters: unit not given here; details: strain 47CG
Description: (§3) Microorganisms used in this study included 13 different Pseudomonas aeruginosa strains. The AML-654 and LZ-1 strains are recent clinical isolates from the UCLA Clinical Microbiology laboratory. Nine strains (5 mucoid, 4 nonmucoid) were recent CF isolates provided by Dr. Lisa Saiman. All of the P. aeruginosa strains except PAO-1 strain were resistant to multiple conventional antibiotics, and all 9 CF isolates were resistant to 250 μg/ml of tobramycin. We have also tested 5 strains each of Stenotrophomonas maltophilia and Burkholderia cepacia from CF patients (also provided by Dr. Lisa Saiman), two strains of Escherichia coli (ML-35p and DH-5a), and single strains of Staphylococcus aureus[MRSA (methicillin-resistant S. aureus)] and C. albicans.

S. maltophilia 42CK = test: Novispirins vs S. maltophilia (Table 5); type: cell-based, Stenotrophomonas maltophilia; parameters: unit not given here; details: strain 42CK
Description: as §3

S. maltophilia 51Cl = test: Novispirins vs S. maltophilia (Table 5); type: cell-based, Stenotrophomonas maltophilia; parameters: unit not given here; details: strain 51Cl
Description: as §3

S. maltophilia 18CP = test: Novispirins vs S. maltophilia (Table 5); type: cell-based, Stenotrophomonas maltophilia; parameters: unit not given here; details: strain 18CP
Description: as §3

S. maltophilia 36CN = test: Novispirins vs S. maltophilia (Table 5); type: cell-based, Stenotrophomonas maltophilia; parameters: unit not given here; details: strain 36CN
Description: as §3

P. aeruginosa = test: Two stage radial diffusion assay with 10 mM HEPES, G10 variants (Table 8); type: cell-based; details: mean ± SEM, n = 3, in µg/mL
Text: (§4) Amidation (—NH2) of the carboxy terminus in some of the novispirin G10 variants was designed to increase overall positive charge. The sequences of these peptides and their net charge is shown below in Table 7. The fractional (and pH dependent) charge on histidine12 was ignored in this calculation.
(§5) In Table 8, MIC signifies minimal inhibitory concentration, as determined by two stage radial diffusion assays. […] Shaded boxes show results that represent a significant improvement of activity (p<0.01 by t-test), relative to novispirin G10. […] None of the above G10 novispirin derivatives caused any hemolysis of human red blood cells, even when tested at 80 μg/ml. It is likely that other cationic amino acids (e.g., lysine, ornithine, etc) could also be used in position 12 to achieve better activity in the presence of calcium and magnesium ions.

K. pneumoniae = test: as above; type: cell-based; details: mean ± SEM, n = 3, in µg/mL
Text: as §4, §5

E. coli = test: as above; type: cell-based; details: mean ± SEM, n = 3, in µg/mL
Text: as §4, §5

S. aureus = test: as above; type: cell-based; details: +1 mM Ca; mean ± SEM, n = 3; in µg/mL
Text: as §4, §5

E. coli ML 35P [2] = type: cell-based, Escherichia coli; details: mean ± SEM, n = 3
Description: Antimicrobial activity. Several different methods were used to examine the antimicrobial properties of novispirins, including: a) two-stage radial diffusion assays; b) colony counting assays; and c) standard microbroth dilution assays.
Antimicrobial activity was tested in media with low, normal or high salinity. In radial diffusion assays, this was accomplished by using a low salt “basic medium” containing 0.3 mg of trypticase soy broth powder/ml of 10 mM sodium phosphate buffer, pH 7.4. Media with “normal” or “high” salinity were prepared by supplementing the basic medium with 100 mM NaCl to obtain media with normal salinity, or with 175-200 mM NaCl to obtain high salt media. Retention of activity against P. aeruginosa in high salt media is important because airway fluids from cystic fibrosis patients are reported to show hypersalinity, and other sites—including skin surfaces surfaces and the urinary bladder—may have locally high salt concentrations.
The relative activities of ovispirin and the novispirins against two organisms, E. coli and a multi-resistant strain of P. aeruginosa, are shown in FIG. 1. The MICs were obtained by radial diffusion assays performed under low, normal, and high salt conditions (which are denoted along the X-axis as 0, 100 and 200 mM NaCl, respectively).
Table 1 compares the activity of novispirins against these Gram-negative bacteria with its activity against Listeria monocytogenes, Staphylococcus aureus and C. albicans. […] Note that novispirins show activity against these Gram-positive bacteria when tested in physiological (100 mM NaCl) salt concentrations, and also that Novispirin G10 is quite active against C. albicans. Although neither ovispirin nor novispirins retained activity against C. albicans or the Gram positives under very high salt conditions (200 mM NaCl), they remained active against the Gram-negatives under these conditions. Consequently, even if the airways' NaCl concentrations are exceptionally high in CF patients, this factor will not impair the ability of ovispirin or novispirins to kill P. aeruginosa.

[3] = Very high salinity (+200 mM NaCl)

Row | Compound | activity vs S. maltophilia (S. maltophilia 47CG; +100 mM NaCl) | activity vs S. maltophilia (S. maltophilia 47CG; +175 mM NaCl) | activity vs S. maltophilia (S. maltophilia 47CG; LOW SALT CONDITIONS) | activity vs S. maltophilia (S. maltophilia 42CK; +100 mM NaCl) | activity vs S. maltophilia (S. maltophilia 42CK; +175 mM NaCl) | activity vs S. maltophilia (S. maltophilia 42CK; LOW SALT CONDITIONS) | activity vs S. maltophilia (S. maltophilia 51Cl; +100 mM NaCl) | activity vs S. maltophilia (S. maltophilia 51Cl; +175 mM NaCl) | activity vs S. maltophilia (S. maltophilia 51Cl; LOW SALT CONDITIONS) | activity vs S. maltophilia (S. maltophilia 18CP; +100 mM NaCl) | activity vs S. maltophilia (S. maltophilia 18CP; +175 mM NaCl) | activity vs S. maltophilia (S. maltophilia 18CP; LOW SALT CONDITIONS) | activity vs S. maltophilia (S. maltophilia 36CN; +100 mM NaCl) | activity vs S. maltophilia (S. maltophilia 36CN; +175 mM NaCl) | activity vs S. maltophilia (S. maltophilia 36CN; LOW SALT CONDITIONS) | other results
1 | CC[C@H](C)[C@H](NC(=O)[C@H](CCCCN)NC(=O)[C@H](CCC(=O)O)NC(=O)[C@H](CCCCN)NC(=O)[C@H](CO)NC(=O)[C@H](CCCCN)NC(=O)[C@H](CCCNC(=N)N)NC(=O)[C@H](Cc1ccccc1)NC(=O)[C@H](Cc1ccccc1)NC(=O)[C@H](CC(=O)O)NC(=O)CNC(=O)[C@H](CC(C)C)NC(=O)[C@@H](N)CC(C)C)C(=O)NCC(=O)N[C@@H](CCCCN)C(=O)N[C@@H](CCC(=O)O)C(=O)N[C@@H](Cc1ccccc1)C(=O)N[C@@H](CCCCN)C(=O)N[C@@H](CCCNC(=N)N)C(=O)N[C@H](C(=O)N[C@H](C(=O)N[C@@H](CCC(N)=O)C(=O)N[C@@H](CCCNC(=N)N)C(=O)N[C@H](C(=O)N[C@@H](CCCCN)C(=O)N[C@@H](CC(=O)O)C(=O)N[C@@H](Cc1ccccc1)C(=O)N[C@@H](CC(C)C)C(=O)N[C@@H](CCCNC(=N)N)C(=O)N[C@@H](CC(N)=O)C(=O)N[C@@H](CC(C)C)C(=O)N[C@H](C(=O)N1CCC[C@H]1C(=O)N[C@@H](CCCNC(=N)N)C(=O)N[C@H](C(=O)N[C@@H](CCC(=O)O)C(=O)N[C@@H](CO)C(=O)O)[C@@H](C)O)C(C)C)[C@@H](C)CC)C(C)C)[C@@H](C)CC [LL-37, reference compound] |  |  |  |  |  |  |  |  |  |  |  |  |  |  |  | MIC (E. coli ML 35P [1]; 0% NHS): 5.8 µg/mL (≈ 1.29 µM); MIC (E. coli ML 35P [1]; 2.5% NHS): 21.0 µg/mL (≈ 4.67 µM); MIC (P. aeruginosa MR 3007; 0% NHS): 12.7 µg/mL (≈ 2.83 µM); MIC (P. aeruginosa MR 3007; 2.5% NHS): 23.7 µg/mL (≈ 5.27 µM); MIC (P. aeruginosa MR 3007; 20% NHS): 141 µg/mL (≈ 31.4 µM)
2 | CC(C)C[C@H](NC(=O)[C@H](CCCNC(=N)N)NC(=O)CNC(=O)CNC(=O)[C@@H](N)CCCNC(=N)N)C(=O)N[C@H]1CSSC[C@@H](C(=O)N[C@H](C(=O)NCC(=O)N[C@@H](CCCNC(=N)N)C(N)=O)C(C)C)NC(=O)[C@H](C(C)C)NC(=O)[C@@H]2CSSC[C@H](NC(=O)[C@H](Cc3ccc(O)cc3)NC1=O)C(=O)N[C@@H](CCCNC(=N)N)C(=O)N[C@@H](CCCNC(=N)N)C(=O)N[C@@H](CCCNC(=N)N)C(=O)N[C@@H](Cc1ccccc1)C(=O)N2 [Protegrin PG-1, reference compound] | 0.53 | 0.74 | 0.09 | 0.50 | 0.79 | 0.32 | 0.92 | 1.08 | 0.42 | 0.58 | 0.70 | 0.52 | 0.46 | 0.57 | 0.27 | 
3 | GLLRRLRKKIGEIFKKYG [PGG, reference compound] | 1.08 | 1.64 | 0.73 | 2.67 | 7.10 | 1.51 | 2.20 | 2.85 | 1.31 | 1.63 | 2.34 | 0.86 | 1.05 | 1.11 | 1.10 | 
4 | K N L R R I I R K G I H I I K K Y G-CONH2 (KNLRRIIRKGIHIIKKYG-NH2) [Novispirin G10 amide] |  |  |  |  |  |  |  |  |  |  |  |  |  |  |  | MIC (P. aeruginosa; +1 mM Ca): 83.5 ± 6.4; MIC (P. aeruginosa; +1 mM Mg): >250; MIC (P. aeruginosa; No Ca/Mg): 0.12 ± 0.01; MIC (K. pneumoniae; +1 mM Ca): 83.5 ± 6.4; MIC (K. pneumoniae; +1 mM Mg): >250; MIC (K. pneumoniae; No Ca/Mg): 0.12 ± 0.01; MIC (E. coli; +1 mM Ca): 7.26 ± 0.02; MIC (E. coli; +1 mM Mg): 17.2 ± 3.9; MIC (E. coli; No Ca/Mg): 0.06 ± 0.00; MIC (S. aureus): >79
5 | KNLRRIGRKIIHIIKKYG [G7 Novispirin, K N L R R I G R K I I H I I K K Y G] | 0.39 | 0.29 | 0.25 | 0.92 | 2.85 | 0.42 | 0.89 | 1.94 | 0.54 | 0.38 | 0.70 | 0.61 | 0.31 | 0.29 | 0.17 | MIC (E. coli ML 35P [2]; Low Salt (+0 mM NaCl)): 0.2 ± 0.0 µg/mL; MIC (E. coli ML 35P [2]; Normal salinity (+100 mM NaCl)): 0.2 ± 0.0 µg/mL; MIC (E. coli ML 35P [2]; [3]): 1.5 ± 0.4 µg/mL
6 | KNLRRITRKIIHIIKKYG [T7 Novispirin, K N L R R I T R K I I H I I K K Y G] | 0.47 | 0.48 | 0.18 | 0.73 | 1.92 | 0.56 | 1.75 | 2.74 | 0.88 | 0.58 | 0.62 | 0.74 | 0.32 | 0.52 | 0.21 | MIC (E. coli ML 35P [2]; Low Salt (+0 mM NaCl)): 0.3 ± 0.1 µg/mL; MIC (E. coli ML 35P [2]; Normal salinity (+100 mM NaCl)): 0.2 ± 0.1 µg/mL; MIC (E. coli ML 35P [2]; [3]): 1.4 ± 0.5 µg/mL
7 | Polymyxin B [reference compound] | 0.08 | 0.05 | 0.16 | 0.02 | 0.01 | 0.05 | 0.04 | 0.05 | 0.02 | 0.04 | 0.002 | 0.04 | 0.02 | 0.02 | 0.06 | 
